Measurements published in patent US20150353626A1, “APOLIPOPROTEIN A-I DERIVED PEPTIDES FOR TREATMENT OF HYPERGLYCAEMIA” (priority 2013, published 2015).

Experiments:
[1] = system: AMPK; assay: Western blot for phosphorylated AMPK in L6 myotube lysates; type: cell-based; details: L6 myotubes, 60 minutes; 2, 10 or 20 μmol/l 190-243 peptide; FIG. 8c
Protocol: (§1) Prior to stimulation or treatment cultured myoblast cells were serum starved for 4 hours in serum-free α-MEM and all subsequent treatments, including insulin or phenformin as positive controls (Sigma), were performed in serum free a-MEM. After treatments, cells were washed with ice cold PBS buffer and lysed on ice using a non-denaturing lysis buffer (1% Triton X-100, 50 mmol/l Tris, 150 mmol/l NaCl, pH 8.0) containing protease and phosphatase inhibitors (Roche). Lysates were centrifuged at 16,000×g, 20 minutes at 4° C. and BCA protein assay (Pierce) was performed on supernatants. Equal protein amounts were separated by SDS-PAGE and transferred to nitrocellulose membranes. pAMPK, AMPK, pACC, pAkt, Akt and tubulin were used for immunodetection with IRDye 800CW and 680RD secondary antibodies (LI-COR). Blots were imaged using the Odyssey Fc system and quantified using Image studio v2.0 software.
To dissect the effect of discoidal rHDL on a non-insulin dependent signaling pathway, we conducted western blotting using lysates from L6 myotubes incubated with rHDL. […] Phenformin was used as a positive control, inducing a 1.98±0.33-fold (p=≦0.05) and 2.7±0.74-fold (p=≦0.05) elevation of phosphorylated AMPK and ACC, respectively, at a concentration of 0.4 mmol/l. […] Representative immunoblots of those quantified for FIGS. 3a, c and f are given in FIGS. 3b, d and e, respectively. […]

[2] = system: Akt; assay: Western blot for phosphorylated Akt in L6 myotube lysates; type: cell-based; details: L6 myotubes, 60 minutes
Protocol: as §1
To dissect the effect of discoidal rHDL on a non-insulin dependent signaling pathway, we conducted western blotting using lysates from L6 myotubes incubated with rHDL. […] Phenformin was used as a positive control, inducing a 1.98±0.33-fold (p=≦0.05) and 2.7±0.74-fold (p=≦0.05) elevation of phosphorylated AMPK and ACC, respectively, at a concentration of 0.4 mmol/l. […] For clarity 1 nmol/l insulin (n=2) and 100 nmol/l insulin (n=3) (51±12.5-fold; p=≦0.01) was plotted in FIG. 3e. Representative immunoblots of those quantified for FIGS. 3a, c and f are given in FIGS. 3b, d and e, respectively.
The effect of the peptide fragment 190-243 of human Apo A-I (SEQ ID NO: 1) on a non-insulin dependent signaling pathway, was tested using lysates from L6 myotubes as described above for rHDL. Myotubes were serum starved for 4 hours then treated for 60 minutes with 2, 10 or 20 μmol/l of 190-243 peptide, 1 mmol/l phenformin, 100 nmol/l insulin, or control (C) followed by western blot analysis for phosphorylated AMPK (AMP-activated protein kinase) or phosphorylated Akt. Tubulin was used as loading control. Blots shown are representative of three independent experiments.

[3] = Circular dichroism spectroscopy, alpha-helical content; type: physicochemical; details: 0.2 mg/ml in PBS pH 7.4, 25° C.
Protocol: CD measurements were performed on a Jasco J-810 spectropolarimeter equipped with a Jasco CDF-4265 Peltier set to 25° C. ApoA-I (full-length and the 190-234 polypeptide fragment) was diluted to 0.2 mg/ml in PBS (final concentration was 25 mmol/l phosphate, 25 mmol/l NaCl, pH 7.4), placed in a 0.1 mm quartz cuvette and, after extensive purging with nitrogen, scanned in the region 200 to 260 nm (scan speed was 20 nm/min). Averages of five scans were baseline-subtracted (PBS; 25 mmol/l phosphate, 25 mmol/l NaCl) and the alpha-helical content was calculated from the molar ellipticity at 222 nm as previously described (Petrlova et al. (2012) J Lipid Res 53: 390-398).

[4] = system: insulin resistant C57Bl/6 mice; assay: Glucose tolerance test in high-fat diet fed (HFD) mice; type: in vivo, mouse
Protocol: Male C57BL/6 mice (Taconic) were used at 9-12 weeks of age. Animals were on a 12 hour light cycle with non-restricted food and water. The HFD animals were fed an HFD (D12492, 60% fat content; Research Diets) for 2 weeks. All animal procedures were approved by the Malmo/Lund Committee for Animal Experiment Ethics, Lund, Sweden. HFD mice fasted overnight (12 hours) were injected intra peritoneal (i.p.) with apoA-I peptides as listed above ([…] in PBS pH 7.4 for the 54-mer fragment and 6-7 mg/kg for other fragments in PBS, pH 7.4; control animals received NaCl) and this was followed by collection of serum samples at the indicated times. Glucose (50 mg/mouse) was injected i.p. 3 hours after treatments, followed by collection of serum samples at the indicated times. Blood glucose levels were measured (OnetouchUltra2; Lifescan), and insulin levels were assayed in serum using ELISA (Mercodia).

[5] = 7 mg/kg i.p., 120 minutes of the test

Row | Substance | levels of phosphorylated AMPK (in words) [1] | Akt phosphorylation (in words) ([2]; 2, 10 or 20 μmol/l 190-243 peptide, FIG. 8c) | helical content from molar ellipticity at 222 nm [3] [%] | increase of glucose-stimulated insulin secretion (AUC) versus control [4, 5] | reduction of total glucose (AUC) versus control [4, 5] | insulin secretion in glucose tolerance test (in words) ([4]; single i.p. injection 7 mg/kg, glucose load 3 hours later, FIG. 10c,d) | Akt phosphorylation ([2]; insulin 100 nmol/l) [fold] | Akt phosphorylation ([2]; rHDL 700 μg/ml apoA-I, insulin 1 nmol/l, ± S.D.) [fold]
1 | 190-243 polypeptide fragment: polypeptide fragment consisting of amino acids 190-243 of the full-length human apoA-I protein, C-terminal domain, 54-mer, recombinant (AEYHAKATEHLSTLSEKAKPALEDLRQGLLPVLESFKVSFLSALEEYTKKLNTQ; listed as Homo Sapiens) | increased levels of phosphorylated AMPK | unaffected | 28 | about 60% | about 40% | significantly improved | – | –
2 | insulin | – | – | – | – | – | – | 51±12.5 | 2.06±0.47
